Laboratory results taken from BigSolDB 2.1.

CC(C(=O)O)c1ccc2c(c1)[nH]c1ccc(Cl)cc12 (stereo not given)
solubility (mole fraction)
Settings | in acetic acid | in ethylene glycol | in formic acid | in glycerin | in isobutanol | in isopropanol | in n-butanol | in n-octanol | in n-propanol | in propylene glycol
288.15 K | 0.00687 | 0.00349 | 0.000435 | 0.000115 | 0.00942 | 0.0145 | 0.014 | 0.0143 | 0.0157 | 0.0055
293.15 K | 0.00706 | 0.00433 | 0.000547 | 0.000147 | 0.0103 | 0.0179 | 0.0174 | 0.0177 | 0.0195 | 0.0069
298.15 K | 0.00863 | 0.00585 | 0.00074 | 0.000209 | 0.0137 | 0.0267 | 0.0243 | 0.0248 | 0.0315 | 0.00753
303.15 K | 0.00998 | 0.00715 | 0.00116 | 0.000301 | 0.0177 | 0.031 | 0.0283 | 0.0295 | 0.0378 | 0.00936
308.15 K | 0.0126 | 0.00861 | 0.00146 | 0.000437 | 0.0243 | 0.0359 | 0.0346 | 0.035 | 0.0418 | 0.0121
313.15 K | 0.0174 | 0.0117 | 0.00201 | 0.00052 | 0.0287 | 0.0436 | 0.0389 | 0.0391 | 0.0507 | 0.0153
318.15 K | 0.0216 | 0.0168 | 0.00287 | 0.000851 | 0.0357 | 0.048 | 0.0441 | 0.0448 | 0.0598 | 0.0183
323.15 K | 0.0268 | 0.0194 | 0.00388 | 0.00133 | 0.0432 | 0.0601 | 0.0526 | 0.0537 | 0.0743 | 0.0223
